Results on 1 molecule are retold here after paper PMC9939319 (Acta Pharmaceutica Sinica. B, 2022).

In the assay the target is TRPA1 (Homo sapiens, UniProt O75762). Put plainly: calcium flux in TRPA1-overexpressing HEK-293 cells. Format: cell-based. For orientation: A change in cytosolic calcium serves as a functional read-out for many receptors and channels.

The term EC50 denotes the concentration needed to bring the measured effect to its halfway point.

Each structure is given as a SMILES string.

TRPA1, sequence (O75762 whole entry): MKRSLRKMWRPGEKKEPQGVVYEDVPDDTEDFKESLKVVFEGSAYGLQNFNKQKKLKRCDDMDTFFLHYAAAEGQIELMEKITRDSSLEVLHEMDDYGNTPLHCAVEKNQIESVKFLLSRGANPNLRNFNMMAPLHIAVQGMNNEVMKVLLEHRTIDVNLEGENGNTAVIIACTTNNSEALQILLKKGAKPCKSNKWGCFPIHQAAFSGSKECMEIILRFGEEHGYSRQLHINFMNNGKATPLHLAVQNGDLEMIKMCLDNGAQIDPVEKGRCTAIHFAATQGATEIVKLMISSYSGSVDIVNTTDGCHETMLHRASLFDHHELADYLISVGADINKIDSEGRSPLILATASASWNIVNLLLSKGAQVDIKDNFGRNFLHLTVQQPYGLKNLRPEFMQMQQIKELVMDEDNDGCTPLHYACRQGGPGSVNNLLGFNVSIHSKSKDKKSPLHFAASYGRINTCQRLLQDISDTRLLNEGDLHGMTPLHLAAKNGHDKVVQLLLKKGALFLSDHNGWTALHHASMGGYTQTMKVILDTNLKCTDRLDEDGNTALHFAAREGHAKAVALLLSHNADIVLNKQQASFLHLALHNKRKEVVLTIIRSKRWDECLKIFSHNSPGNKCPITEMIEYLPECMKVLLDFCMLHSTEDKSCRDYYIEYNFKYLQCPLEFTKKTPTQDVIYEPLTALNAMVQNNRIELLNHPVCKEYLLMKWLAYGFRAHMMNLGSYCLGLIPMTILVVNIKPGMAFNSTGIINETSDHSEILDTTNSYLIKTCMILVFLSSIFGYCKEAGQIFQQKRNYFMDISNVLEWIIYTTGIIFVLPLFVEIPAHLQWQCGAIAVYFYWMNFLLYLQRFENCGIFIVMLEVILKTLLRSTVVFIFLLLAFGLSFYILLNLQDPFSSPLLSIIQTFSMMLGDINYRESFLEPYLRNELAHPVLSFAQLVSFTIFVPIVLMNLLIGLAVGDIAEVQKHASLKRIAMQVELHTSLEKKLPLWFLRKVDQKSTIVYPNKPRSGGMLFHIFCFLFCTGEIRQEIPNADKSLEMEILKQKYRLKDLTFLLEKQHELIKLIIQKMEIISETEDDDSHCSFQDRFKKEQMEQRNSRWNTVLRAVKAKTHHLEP

Consider `CC(C)(C)c1ccc(O)c(C(C)(C)C)c1` [2,4-DTBP], for which the EC50 was 225 µM.
